Row | SMILES | melting point [°C]
1 | COc1ccc(C(=O)Nc2ccc(C(C)(C)C#N)cc2)c(Cl)c1OC | 195 to 198
2 | COC(=O)c1sc(C)cc1N1N=C2c3cc(C)sc3SCC2CC1=O (centres undefined) | 164 to 166
3 | CC#Cc1ccc(NC(=O)c2ccccc2NCc2ccc(=O)[nH]c2)cc1C(F)(F)F | 208 to 212
4 | COc1ccc(NC(N)=S)c(N2CCOCC2)c1 | 175
5 | N#CC(Nc1ccccc1C(=O)C1CC1)c1c(Cl)cccc1Cl (centres undefined) | 144
6 | CCCC(=O)c1ccc(O)c(OC)c1 | 40 to 41
7 | O=Cc1c[nH]nc1-c1ccc([N+](=O)[O-])o1 | 184 to 186
8 | CCOc1nc(Nc2cccc(C(F)(F)F)c2)nc(N2CCN(C(=O)c3ccn(CC)n3)CC2)n1 | 145 to 148
9 | CC(=O)Nc1cccc(C(=O)N2CCN(CCc3ccc(Cl)cc3)CC2)c1 | 101 to 107
10 | CN1CCN(c2ncccc2OC2CCN(c3ccc(C4CCOCC4)cc3)C2=O)CC1 (centres undefined) | 219 to 248
11 | O=C1C2=CC=CCC2C(O)N1CCN1CCC(c2noc3cc(F)ccc23)CC1 (centres undefined) | 172 to 173
12 | O[C@@H]1CN=C(c2ccccc2)O[C@H]1c1ccccc1 (racemic) | 135
13 | O=C(O)CCCc1c(-c2ccc(F)cc2)[nH]c2ccc(-c3ccc(O)cc3)cc12 | 180 to 183
14 | O=C(O)Cc1ccc(C(=O)O)cc1Sc1ccc(F)cc1 | 218 to 221
15 | O=C1NC(c2ccccc2)(c2ccccc2)C(=O)N1CCl | 161 to 162
16 | O=C(Nc1cccc2c(=O)cc(-c3nnnn3O)oc12)c1ccc(OCCCCc2ccccc2)cc1 | 238 to 240
17 | CN1C(=O)CC(=O)N(c2ccccc2)C1=O | 124
18 | CC(Cl)(Cl)C1(O)NC(=O)C(=O)N1 | 220
19 | CCOCc1nc2c(N)nc3ccccc3c2n1CC1(OCCS(C)(=O)=O)CCCC1 | 163 to 165
20 | CC1=CC(=O)C=C2CC(C)C3C4CCC(=O)C4(C)CCC3C12C (centres undefined) | 148 to 151
21 | CN1NC(Oc2cc(F)ccc2[N+](=O)[O-])=CC1C(F)(F)F (centres undefined) | 68 to 70
22 | CCCCCCCCCCCC(=O)NCCCCCC(=O)O | 85 to 86
23 | COc1cc(NC(=O)Nc2cccc3c2C2CC(OC)CCN2C3=O)nc2ccccc12 (centres undefined) | > 260

Row | SMILES | melting point [°C]
24 | CC(C)c1ccc(-c2nc(-c3cccc(C(=O)O)c3)ns2)cc1 | 165 to 167
25 | Fc1ccc(Oc2ccc(-c3ccn(-c4ncccn4)n3)cc2)cc1 | 123 to 125
26 | CCOCc1nc2c(N)nc3cc(OCc4ccccc4)ccc3c2n1CC(C)C | 201 to 203
27 | Cc1cc(C)c2nsnc2c1[N+](=O)[O-] | 105 to 106
28 | Clc1nc(-c2cccnc2)sc1Br | 114 to 115
29 | CCCCCCCCCCCCCCCCS(=O)(=O)NCCCCCCCN(C)C | 56 to 57.5
30 | CC(C)(C)c1cc(CCc2ccccc2NC(=O)NC2CCN(Cc3ccccc3)CC2)cc(C(C)(C)C)c1O | 79 to 81
31 | Cc1ccc2c(-n3ccnc3)c(F)ccc2n1 | 159 to 161
32 | O=C(O)c1cccc(-c2ccn(-c3ccc(OC(F)F)cc3)n2)c1 | 182 to 183
33 | COCCc1nc2c(N)nc3c(c2n1CCOCCN(C)C(=O)Nc1ccccc1)CCCC3 | 168 to 170
34 | COc1ccc(C=CN(C)C)c([N+](=O)[O-])c1[N+](=O)[O-] | 100 to 131
35 | CC1(C)Oc2cc3c(cc2O1)OC(C)(C)O3 | 122
36 | Fc1ccc2c(C3CCN(CC4=Cc5cc6c(cc54)OCO6)CC3)noc2c1 | 125 to 126
37 | CS(=O)(=O)c1cc(C(=O)NCCN2CCOCC2)c(NCc2ccco2)cc1Cl | 127 to 130
38 | CCOC(=O)C(=CNc1sc(I)cc1C(=O)OC)C(=O)OCC | 163 to 164
39 | CC(C(N)=S)C(O)(Cn1cncn1)c1ccc(F)cc1F (centres undefined) | 164 to 167
40 | Clc1ccc(-c2cn([C@H]3CN4CCC3CC4)nn2)cc1 | 144
41 | CC(C)COc1cc(-c2ccc(N)c(OCC(C)C)c2)ccc1N | 270
42 | CCOC(=O)c1sc(N2CCNC2=O)nc1C | 197 to 199
43 | COP(=O)(OC)[C@@H](O)[C@H](CC1CCCCC1)NC(=O)[C@H](CC(C)C)NC(=O)CCc1ccccc1 | 157
44 | COC(=O)c1ccc(OCC2CC(=O)N(c3ccc(O)cc3)C2)cc1 (centres undefined) | 141 to 144
45 | COC(=O)c1cc(C(=O)c2c(C)c(OC)c3c(OCc4ccccc4)cccn23)ccc1NC(=O)C(F)(F)F | 214

Next, values leading:

Row | melting point [°C] | SMILES
46 | 172 to 179 | O=C(O)Cn1cnc2c(NC3CCCCC3)nc(NCc3ccc(C4CCCCC4)cc3)nc21
47 | 83 to 87 | c1ccc(CC[C@H]2CNCCN2)nc1
48 | 132 to 133 | CCN(CCNC(=O)Nc1cc(Cl)ccc1CCc1cc(C(C)(C)C)c(O)c(C(C)(C)C)c1)Cc1ccccc1
49 | 199 to 205 | CC(C)Oc1c(Br)c(Br)n(Cc2ccccc2)c1C(=O)Nc1nnn[nH]1
50 | 88 to 90 | N#CCc1cccc([N+](=O)[O-])c1[N+](=O)[O-]
51 | 151 to 153 | CC(CC(C)C1CCC2C3C(O)CC4CC(O)CCC4(C)C3CC(O)C12C)C(=O)O (centres undefined)
52 | 172 to 173 | CC1=C(C(=O)c2ccc(C(=O)NCCC#N)cc2)C(=O)C2C=CC=CC2C1=O (centres undefined)
53 | 142 to 144 | CC1(C)C=C(CN2C/C(=C\c3ccc(F)cc3)C(=O)/C(=C/c3ccc(F)cc3)C2)C(C)(C)N1O
54 | 139 to 141 | CNC(=O)c1cnn(C2(C)CCCC2)c1C#N
55 | 172 to 173 | CCCCCCNC(=O)c1cccc2c1C1(COc3cc4c(cc31)OCCO4)C(=O)N2C (centres undefined)
56 | 183 to 185 | CCC(=Nc1ccc2c(c1)C(=O)c1ccc(N=C(CC)N3CCCCC3)cc1C2=O)N1CCCCC1
57 | 139 to 141 | COc1cc(OC)cc(-c2ccc(N(C)CCN(C)c3ccc(-c4cc(OC)cc(OC)c4)nc3)cn2)c1
58 | 120 to 122 | C=C(c1ccc(-n2cncn2)nc1)C1(c2ccc(F)cc2F)CO1 (centres undefined)
59 | 109 to 110 | CCCS(=O)(=O)N(C)CCc1ccncc1
60 | 114 to 116 | CC(C)C(=O)Nc1ccc(N)c(C(F)(F)F)c1
61 | 87.5 to 88 | CCN(CC)c1ccc2ccc(=O)oc2c1
62 | 100 to 101 | CC(=O)NCCC1CCc2ccn3nccc3c21 (centres undefined)
63 | 250 to 252 | CCOC(=O)c1cnc(Nc2ccccc2F)[nH]c1=O
64 | 204 to 207 | O=C(OCC1OC(c2ccc(Cl)c(Cc3cc4ccccc4s3)c2)C(OC(=O)c2ccccc2)C(OC(=O)c2ccccc2)C1F)c1ccccc1 (centres undefined)
65 | 72 to 74 | CNC(=O)/C(=N/OC)c1ccccc1CCl
66 | 92 to 93 | O=C(CCCCCNC(=O)CCCc1ccccc1)NO
67 | 220 | CC(C)(C)OC(=O)N1CC(c2n[nH]c(-c3ccccn3)n2)C1
68 | 136 | CC(=O)OC1c2ccc(Cl)cc2CC1S(C)(=O)=O (centres undefined)
69 | 170 to 172 | Cc1ccc(S(=O)(=O)NCCCCCCCCCCCn2c3c(c4ccccc4c2=O)C(=O)c2ccccc2-3)cc1
70 | 72 to 73 | Cn1nc(-c2ncc(Cl)cc2F)cc1OCC(F)(F)F
71 | 197 to 198 | COCOC(C(Cc1ccccc1)NC(=O)[C@@H](NC(=O)OCc1ccccc1)C(C)C)C(Cc1ccccc1)NC(=O)[C@@H](NC(=O)OCc1ccccc1)C(C)C (some centres undefined)
72 | 55 to 57 | CC1(c2cccc(C3(O)CCCCC3)c2)OCCO1

Row | melting point [°C] | SMILES
73 | 308 to 310 | COc1ccc(-c2nc3cccc(OC)c3c(=O)[nH]2)nc1-c1ccc(S(C)=O)cc1 (centres undefined)
74 | 258 to 263 | O=C1Nc2cc(F)ccc2C1c1ncnc2nn(C3CCCC3)cc12 (centres undefined)
75 | 173 | CC1(C)CCCN(C(=O)[C@H]2C[C@H](C(=O)O)[C@@H](c3ccccc3F)N2C(=O)CNC(=O)Nc2cccc(CC(=O)O)c2)C1 (racemic)
76 | 138 to 140 | Nc1ccc(OC[C@@H]2CCCN2c2ccc3ccccc3n2)cc1
77 | 171 to 172 | CCOc1cc(C(CC#N)N2C(=O)c3cccc(N)c3C2=O)ccc1OC (centres undefined)
78 | 213 to 217 | N#Cc1ccc2ccn3cccc3c(=O)c2c1
79 | 101 | COc1ccc(S(=O)(=O)C2(C(=O)O)CCN(CCCOc3ccccc3)CC2)cc1
80 | 218 to 220 | CCN(C(=O)c1ccccc1C(c1ccc(O)cc1)c1ccc(O)cc1)c1cccc(C)c1
81 | 150 to 151 | COc1ccc(S(=O)(=O)Nc2ccccc2NC(=O)c2cc(C)nc(Cl)c2)cc1
82 | 214 | CC1=C(c2ccncc2)SC(O)C(=O)N1 (centres undefined)
83 | 162 | CC1Oc2ccccc2-n2cnc(-c3noc(C4CC4)n3)c21 (centres undefined)
84 | 51 to 53 | N#Cc1cnn(-c2c(Cl)cc(C(F)(F)F)cc2Cl)n1
85 | 178 to 180 | CCC(OC(C)=O)c1ccc(Cl)c2nc3n(c12)CCCN3c1ccc(OC)cc1Cl (centres undefined)
86 | 148 to 154 | Oc1ccccc1-n1cnc(-c2ccccc2)n1
87 | 188 | Cc1cc2c(=O)n(CCN3CCC(Nc4nc5ccccc5n4Cc4ccc(F)cc4)CC3)c(=O)[nH]c2s1
88 | 190 | CCOC(=O)CNC(=O)c1csc(NC(=N)N)n1
89 | 170 to 171 | O=C1CC(c2ccccc2Cl)=Nc2c1cccc2C(=O)OCCO
90 | 147 to 150 | CC(c1cc2ccccc2o1)N(O)C(N)=O (centres undefined)
91 | 189 to 190 | C=CCc1cc2c(C)c(Br)c(=O)oc2c(C)c1O
92 | 247 to 250 | Cc1c(O)nc2sc(SCc3ccccc3)nn2c1=O
93 | 119 to 121 | CCCN(CCC)c1c([N+](=O)[O-])cc(S(=O)(=O)N(C)SC)cc1[N+](=O)[O-]
94 | 144 to 147 | Cc1ccccc1-c1cn(C)cc(-c2cccc(C(F)(F)F)c2)c1=O
95 | 272 | CC(C)(CO)NS(=O)(=O)c1cc(NC(=O)c2cnn3c(C(F)(F)F)cc(-c4ccc(Cl)cc4)nc23)c(Cl)s1
96 | 120 to 121 | CCN1C(=O)c2cnc(-c3ccccc3)nc2N(C(=O)CN(C(C)C)C(C)C)c2ccccc21
97 | 107 to 108 | O=S(=O)(Nc1ccc2c(OCC3(c4cccc(C(F)(F)F)c4)N=CNO3)cccc2c1)C(F)(F)F (centres undefined)
98 | 93 to 94 | c1ccn(-c2nc(COc3ccc(CCCn4ccnc4)cc3)cs2)c1
99 | 220 | CCn1cc(C(=O)O)c(=O)c2cc(F)c(N3CCNC(c4cc[nH]c4)C3)cc21 (centres undefined)
